The values that follow are results of earlier work, collected in patent US20070264289A1, “COMPOSITIONS AND METHODS OF ADMINISTERING DOXEPIN TO MUCOSAL TISSUE” (EOT Research Inc., priority 2003, published 2007).

The conditions of data set [1]: metabolite formed in the liver after systemic absorption of doxepin.
For data set [2] the following is noted: systemic doxepin; drowsiness in a significant number of patients at this range.

Counter-ions that a name gives are not always drawn.

For `CNCCC=C1c2ccccc2COc2ccccc21` [Desmethyldoxepin, desmethyldoxepin], the half-life (usually the time needed for the level to fall by half in the phase considered) in data set [1] was 28 to 52 h. For the compound `CN(C)CCC=C1c2ccccc2COc2ccccc21` [doxepin, N,N-dimethyldibenz(b,e)oxepin-propylamine hydrochloride], the “target plasma therapeutic range for treatment of depression” value in data set [2] is 30 to 150 ng/mL.
